Reference: the NIST ThermoML archive (doi:10.1021/je060490w)

Tests used:
[1] = for surface tension liquid-gas: Pendant drop shape; for mass density: 101.33 kPa, Liquid
[2] = xn = mol fraction of the nth substance listed; conditions: Pendant drop shape

CCOC(C)OCC [1,1-diethoxyethane]
[1]
Conditions	mass density [kg/m3]	surface tension liquid-gas [mN/m]
298.15 K	821.96	20.88
308.15 K	811.48	19.89
313.15 K	806.18	19.42

CCOC(C)OCC [1,1-diethoxyethane] + Cc1cc(C)cc(C)c1
[2]
Conditions	surface tension liquid-gas [mN/m]
298.15 K, x1 = 0.0491	27.45
298.15 K, x1 = 0.1013	26.91
298.15 K, x1 = 0.1538	26.36
298.15 K, x1 = 0.1996	25.83
298.15 K, x1 = 0.2501	25.34
298.15 K, x1 = 0.3009	24.81
298.15 K, x1 = 0.3501	24.37
298.15 K, x1 = 0.4067	23.83
298.15 K, x1 = 0.4506	23.45
298.15 K, x1 = 0.4997	23.04
298.15 K, x1 = 0.5523	22.62
298.15 K, x1 = 0.601	22.26
298.15 K, x1 = 0.6508	21.92
298.15 K, x1 = 0.7006	21.64
298.15 K, x1 = 0.7507	21.43
298.15 K, x1 = 0.8014	21.2
298.15 K, x1 = 0.851	21.09
298.15 K, x1 = 0.8994	21.02
298.15 K, x1 = 0.9487	20.95
298.15 K, x1 = 1	20.88
308.15 K, x1 = 0.0488	26.55
308.15 K, x1 = 0.1009	25.97
308.15 K, x1 = 0.1495	25.4
308.15 K, x1 = 0.1991	24.86
308.15 K, x1 = 0.2498	24.32
308.15 K, x1 = 0.3014	23.84
308.15 K, x1 = 0.3503	23.35
308.15 K, x1 = 0.4004	22.89
308.15 K, x1 = 0.4508	22.44
308.15 K, x1 = 0.5011	22.03
308.15 K, x1 = 0.5503	21.61
308.15 K, x1 = 0.5979	21.25
308.15 K, x1 = 0.6511	20.9
308.15 K, x1 = 0.6997	20.62
308.15 K, x1 = 0.7503	20.33
308.15 K, x1 = 0.7977	20.15
308.15 K, x1 = 0.8462	20.04
308.15 K, x1 = 0.8993	19.95
308.15 K, x1 = 0.9418	19.93
308.15 K, x1 = 1	19.89
313.15 K, x1 = 0.0487	26.09
313.15 K, x1 = 0.0991	25.49
313.15 K, x1 = 0.1507	24.91
313.15 K, x1 = 0.1999	24.37
313.15 K, x1 = 0.2468	23.86
313.15 K, x1 = 0.3001	23.34
313.15 K, x1 = 0.3501	22.83
313.15 K, x1 = 0.4008	22.38
313.15 K, x1 = 0.4502	21.95
313.15 K, x1 = 0.5	21.54
313.15 K, x1 = 0.5495	21.12
313.15 K, x1 = 0.6005	20.73
313.15 K, x1 = 0.6506	20.4
313.15 K, x1 = 0.7005	20.11
313.15 K, x1 = 0.7514	19.8
313.15 K, x1 = 0.7996	19.63
313.15 K, x1 = 0.8494	19.52
313.15 K, x1 = 0.9003	19.48
313.15 K, x1 = 0.9498	19.44
313.15 K, x1 = 1	19.42
